Experimental data: patent publication US20250288518A1, “METHODS OF USING RADIPRODIL IN THE TREATMENT OF DISORDERS” (GRIN Therapeutics, Inc., priority 2023, published 2025)
“And” between values parts separate entries of the source, which are not always exact repeats. Equal entries are not always repeated. Where two headings read alike, the source gives them in different places.

Experiments:
[1] = phase 1B study, behavioral cohort: treatment emergent adverse events; type: in vivo, human
Excerpt: Pyrexia, diarrhoea, and respiratory tract infection were the most common TEAEs. Three patients experienced SAEs, all unrelated to radiprodil treatment. One each of adenovirus infection, bronchiolitis, and viral pneumonia.

in vivo [2] = details: dog
[3] = phase 1B study, seizure cohort: treatment emergent adverse events; type: in vivo
Excerpt: The primary objectives of this study are to determine the safety and tolerability of multiple individually titrated doses of radiprodil as an add-on therapy to standard of care (SOC) in pediatric participants; establish a safe and well-tolerated dose; and to determine the pharmacokinetics (PK) and plasma exposure of radiprodil. Endpoints of these primary objectives include: adverse events (AEs), serious adverse events (SAEs), and adverse drug reactions (ADRs) (frequency, type, severity, and duration); changes in vital signs; physical examination findings; 12-lead electrocardiogram (ECG) findings; clinically significant changes in laboratory parameters; emergence of new seizure types; occurrence of suicidal ideation or behavior; determination of the maximum tolerated dose of radiprodil based on safety and tolerability data; and plasma concentrations of radiprodil.
Pyrexia, diarrhoea, and respiratory tract infection were the most common TEAEs. Three patients experienced SAEs, all unrelated to radiprodil treatment. One each of adenovirus infection, bronchiolitis, and viral pneumonia

[4] = Phase 1 study of normal healthy human subjects, 45 mg Radiprodil (30% Formulation) fed and fasted; type: in vivo; details: for AUC(0-inf) / AUC(0-t) / Cmax: human, in vivo, oral; for AUC(0-inf): read-out: AUCinf Geometric LSM; for AUC(0-t): read-out: AUClast Geometric LSM; for Cmax: read-out: Cmax Geometric LSM
[5] = system: pentylenetetrazole (PTZ)-induced generalized clonic-tonic seizures; assay: juvenile PTZ rat model; type: in vivo
Experimental: (§1) Radiprodil anticonvulsant efficacy was specifically tested in rats at different time points during postnatal development, using pentylenetetrazole (PTZ) as a convulsant, to induce generalized clonic-tonic seizures. The activity of radiprodil in this juvenile PTZ rat model was tested up to 30 mg/kg, showing efficacy at a dose of 1 mg/kg. The calculated free plasma fraction of an orally administered 1 mg/kg dose is expected to give around 60% occupancy of the NR2B receptor, based on an ex-vivo occupancy study in rodents and assuming a 1:1 brain to plasma ratio, see below for further details.

behavioral symptoms = assay: phase 1B study, behavioral cohort: global impressions of change; type: in vivo, human; details: clinicians and caregivers
Excerpt: (§2) This is a global, open-label, multicenter, phase 1B study to evaluate the safety, tolerability, and PK of multiple individually titrated doses of radiprodil and to assess the treatment effect on seizures and behavioral symptoms in 2 cohorts of pediatric participants: 1 cohort of participants with drug resistant seizures (with or without behavioral symptoms) (Cohort 1) and 1 cohort of participants with behavioral symptoms (but no qualifying seizures) (Cohort 2) caused by GoF variants in the GRIN1, 2A, 2B, or 2D genes (GRIN2B GoF variants only in the US). These GoF variants are gene mutations that cause an increased sensitivity of NMDA receptors to glutamate or through decreased inhibition by magnesium, altered affinity to glycine, or other relevant changes considered to increase NMDA transmission. Drug-resistant seizures are defined as a failure to respond to at least 2 antiseizure medication (ASM) therapies taken at adequate doses for an appropriate duration with assured medication adherence as determined by the treating physician. Participants with seizures to be enrolled in the first cohort should have at least 1 observable motor seizure per week and ≥4 observable motor seizures in the prospective 4-week Observation Period.
A behavioral cohort of patients from 6 months to 12 years of age with known GoF variants confirmed via method described in Myers, et al., Hum Mol Genetics. […]

in vivo [6] = details: rat
audiogenic seizures = assay: audiogenic seizure model (generalized seizures); type: in vivo; details: adult mice
[7] = cited from earlier work
[8] = system: countable motor seizure (CMS); assay: phase 1B study, seizure cohort: efficacy; type: in vivo, human
Excerpt: Investigational Product (IP): Radiprodil. This example describes an open-label, multicenter phase 1B study being conducted to evaluate the safety, tolerability, and pharmacokinetics (PK) of multiple individually titrated doses of radiprodil and to assess the treatment effect on seizures in participants with drug-resistant seizures caused by gain-of-function (GoF) variants in the GRIN1, GRIN2A, GRIN2B, or GRIN2D genes (GRIN2B GoF variants in the US only).
as §2
A seizure cohort of patients from 6 months to 12 years of age with known GoF variants confirmed via method described in Myers, et al., Hum Mol Genetics. 2023, 32:2857-2871, was enrolled. The patients had drug-resistant seizures with or without behavioral symptoms. Patients also had ≥1 weekly countable motor seizure (CMS) with ≥4 generalized or focal seizures during the observation period. Motor seizures included drop seizures; generalized onset seizures included tonic-clonic, tonic, bilateral clonic, atonic, myoclonic-atonic, and myoclonic-tonic-clonic seizures; and focal seizures included seizures with bilateral hyperkinetic motor features and clonic seizures.
Primary endpoints included safety, tolerability, and radiprodil plasma concentrations. Key secondary endpoints (aka, change from baseline in observable daily CMS frequency using an electronic diary (eDiary)), included ≥50%, ≥90%, and 100% reductions from baseline in seizure frequency; proportion of seizure-free days; and Clinical Global Impressions of Change (CGI-C) and Caregiver Global Impressions of Change (CaGI-C), from baseline to the end of the maintenance period.

[9] = 135 mg daily (45 mg tid) up to 14 weeks; cited from earlier work
[10] = 9-month dog toxicology study; type: in vivo; details: 1.5 mg/kg/day
NR2B receptor = biological target: T1, NR2B receptor (Rattus norvegicus, UniProt P35439+Q00960); assay: NR2B occupancy at rat doses, based on ex-vivo occupancy study in rodents
T1 construct: occupancy of the NR2B receptor, based on an ex-vivo occupancy study in rodents; from tissue; host or cells: rodent brain (ex vivo occupancy; brain is implied by the 1:1 brain to plasma ratio)
Experimental: as §1

[11] = all unrelated to radiprodil treatment
[12] = 2 participants, doses up to 0.2 mg/kg bid

T1 sequence (Q00960 27-1482, other chains not shown): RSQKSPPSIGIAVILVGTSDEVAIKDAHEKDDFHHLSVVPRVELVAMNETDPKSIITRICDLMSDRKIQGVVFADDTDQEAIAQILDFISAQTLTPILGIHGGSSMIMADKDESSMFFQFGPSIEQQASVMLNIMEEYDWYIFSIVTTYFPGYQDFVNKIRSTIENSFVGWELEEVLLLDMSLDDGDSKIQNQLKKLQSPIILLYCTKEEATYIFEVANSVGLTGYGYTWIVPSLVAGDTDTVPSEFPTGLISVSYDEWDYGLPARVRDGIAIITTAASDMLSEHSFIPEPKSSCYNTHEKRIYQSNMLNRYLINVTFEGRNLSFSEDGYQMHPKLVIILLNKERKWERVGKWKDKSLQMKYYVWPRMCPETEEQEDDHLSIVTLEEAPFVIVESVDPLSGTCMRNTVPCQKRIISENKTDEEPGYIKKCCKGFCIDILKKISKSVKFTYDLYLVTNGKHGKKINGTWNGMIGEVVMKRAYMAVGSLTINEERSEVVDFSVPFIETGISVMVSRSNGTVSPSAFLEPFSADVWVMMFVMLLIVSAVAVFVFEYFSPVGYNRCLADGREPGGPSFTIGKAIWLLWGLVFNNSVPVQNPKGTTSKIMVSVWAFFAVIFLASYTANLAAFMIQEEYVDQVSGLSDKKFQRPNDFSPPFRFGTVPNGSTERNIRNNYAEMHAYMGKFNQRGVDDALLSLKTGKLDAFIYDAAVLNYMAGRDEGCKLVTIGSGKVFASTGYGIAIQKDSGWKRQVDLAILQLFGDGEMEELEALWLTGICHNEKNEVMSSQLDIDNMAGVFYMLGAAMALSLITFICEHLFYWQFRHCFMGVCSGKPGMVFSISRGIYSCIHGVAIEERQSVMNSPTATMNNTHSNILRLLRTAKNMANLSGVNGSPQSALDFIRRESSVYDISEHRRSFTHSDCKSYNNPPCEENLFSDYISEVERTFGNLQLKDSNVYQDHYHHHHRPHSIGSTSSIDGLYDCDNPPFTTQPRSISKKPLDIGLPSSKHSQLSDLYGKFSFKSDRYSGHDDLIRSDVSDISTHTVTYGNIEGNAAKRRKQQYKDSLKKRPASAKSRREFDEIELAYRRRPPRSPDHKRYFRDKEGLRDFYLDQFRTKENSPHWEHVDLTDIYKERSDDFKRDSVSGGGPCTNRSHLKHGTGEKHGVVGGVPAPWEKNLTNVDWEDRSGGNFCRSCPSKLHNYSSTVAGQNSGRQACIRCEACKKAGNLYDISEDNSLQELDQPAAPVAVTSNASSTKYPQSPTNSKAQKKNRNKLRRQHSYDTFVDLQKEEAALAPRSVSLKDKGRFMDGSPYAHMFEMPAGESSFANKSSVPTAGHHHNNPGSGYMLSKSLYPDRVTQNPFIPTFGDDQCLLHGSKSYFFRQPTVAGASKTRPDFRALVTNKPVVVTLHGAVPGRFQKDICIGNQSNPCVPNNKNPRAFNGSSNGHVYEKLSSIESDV

O=C(Nc1ccc2[nH]c(=O)oc2c1)C(=O)N1CCC(Cc2ccc(F)cc2)CC1 [Radiprodil]
Abnormal behavior, % ([1]; Behavioral Cohort (n = 7)): 28.6%
Agitation, % ([1]; Behavioral Cohort (n = 7)): 28.6%
Any TEAE, % ([1]; Behavioral Cohort (n = 7)): 85.7%
Cough, % ([1]; Behavioral Cohort (n = 7)): 14.3%
Diarrhea, % ([1]; Behavioral Cohort (n = 7)): 28.6%
Dystonia, % ([1]; Behavioral Cohort (n = 7)): 14.3%
Fatigue, % ([1]; Behavioral Cohort (n = 7)): 28.6%
Gastroenteritis, % ([1]; Behavioral Cohort (n = 7)): 14.3%
Pyrexia, % ([1]; Behavioral Cohort (n = 7)): 14.3%
Respiratory tract infection, % ([1]; Behavioral Cohort (n = 7)): 28.6%
patients with SAEs [1, 11]: Three
tolerability ([1]; behavioral cohort): generally well-tolerated
NOAEL at 13 weeks (in vivo [2]): 1.5 mg/kg/day
AUC(0-t) (in vivo [2]; 1.5 mg/kg/day): 3750 ng·h/mL
Cmax (in vivo [2]; 1.5 mg/kg/day): 722 ng/mL
Abnormal behavior, % ([3]; Seizure Cohort (n = 8)): (12.5) %
Agitation, % ([3]; Seizure Cohort (n = 8)): (12.5) %
Any TEAE, % ([3]; Seizure Cohort (n = 8)): (100) %
Cough, % ([3]; Seizure Cohort (n = 8)): (25.0) %
Diarrhoea, % ([3]; Seizure Cohort (n = 8)): (25.0) %
Dystonia, % ([3]; Seizure Cohort (n = 8)): (25.0) %
Fatigue, % ([3]; Seizure Cohort (n = 8)): (12.5) %
Gastroenteritis, % ([3]; Seizure Cohort (n = 8)): (25.0) %
Pyrexia, % ([3]; Seizure Cohort (n = 8)): (50.0) %
Respiratory tract infection, % ([3]; Seizure Cohort (n = 8)): (25.0) %
patients with SAEs [3, 11]: Three
tolerability ([3]; seizure cohort): generally well-tolerated
AUCinf Geometric LSM Ratio (Fed/Fasted) [4]: 148.4%
AUClast Geometric LSM Ratio (Fed/Fasted) [4]: 155.8%
Cmax Geometric LSM Ratio (Fed/Fasted) [4]: 259.6%
AUC(0-inf) ([4]; Fasted): 1890 ng·h/mL
AUC(0-t) ([4]; Fasted): 1780 ng·h/mL
Cmax ([4]; Fasted): 81.3 ng/mL
AUC(0-inf) ([4]; Fed): 2810 ng·h/mL
AUC(0-t) ([4]; Fed): 2770 ng·h/mL
Cmax ([4]; Fed): 211 ng/mL
tonic phases of PTZ-induced convulsions ([5]; 10 mg/kg, postnatal day 12 and postnatal day 18 rats): completely blocked
dose showing efficacy in juvenile PTZ rat model ([5]; tested up to 30 mg/kg): 1 mg/kg
CGI-C and CaGI-C (behavioral symptoms): clinical improvement in most patients
AUC (in vivo [6]): 9550 ng·h/mL
AUC0-24h at NOAEL (in vivo [6]): 9,555 ng×h/mL
AUC(0-t) (in vivo [6]): 9560 ng·h/mL
Cmax (in vivo [6]): 1400 ng/mL
Cmax at NOAEL (in vivo [6]): 1404 ng/mL
NOAEL at 4 weeks (in vivo [6]): 100 mg/kg/day
exposure (total Cmax and AUC) of 0.05 mg/kg bid lower than NOAEL exposure (in vivo [6]): more than 20 fold
NOAEL (in vivo [6]; 4 weeks): 100 mg/kg/day
anticonvulsant efficacy in audiogenic seizure model (audiogenic seizures): anticonvulsant activity in the same range of doses/exposures
AUC0-4 [7, 12]: up to 1036 ng×h/mL
AUC(0-t) [7, 12]: up to 1036 ng×h/mL
Cmax [7, 12]: up to 208 ng/mL
safety and tolerability ([7]; 3 infants, treatment for up to 34 days): safe and well tolerated
median reduction in CMS ([8]; 8-week maintenance period): ~86%
patients seizure-free during 80% of days ([8]; 8-week maintenance period): 6 of 7
patients with reduction in CMS of 100% ([8]; 8-week maintenance period): 14.3%
patients with reduction in CMS of ≥50% ([8]; 8-week maintenance period): 71.4%
patients with reduction in CMS of ≥90% ([8]; 8-week maintenance period): 42.9%
patients with reductions from baseline in CMS frequency ([8]; seizure cohort): 6 of 7
CGI-C and CaGI-C ([8]; seizure cohort, clinicians and caregivers): clinical improvement in most patients
AUC [9]: 9000 ± 2387 ng·h/mL
AUC0-24h [9]: 6875 ng·h/mL
Cmax [9]: 487 ± 129 ng/mL and 482 ± 129 ng/mL
AUC(0-t) ([10]; dog, plasma, at 6-months, read-out: average AUC0-24h): 7060 ng·h/mL
seizures or convulsions ([10]; up to 6 months): no seizures or convulsions were observed
NR2B occupancy (NR2B receptor; 10 mg/kg): ~90%
occupancy of the NR2B receptor (NR2B receptor; orally administered 1 mg/kg, calculated free plasma fraction, 1:1 brain to plasma ratio assumed): around 60%
